What follows are compounds tested against T1, (S)-6-hydroxynicotine oxidase (Paenarthrobacter nicotinovorans, UniProt O86101) (assay: Steady-State Kinetics). Settings: pH 8.
T1 sequence (O86101 whole entry): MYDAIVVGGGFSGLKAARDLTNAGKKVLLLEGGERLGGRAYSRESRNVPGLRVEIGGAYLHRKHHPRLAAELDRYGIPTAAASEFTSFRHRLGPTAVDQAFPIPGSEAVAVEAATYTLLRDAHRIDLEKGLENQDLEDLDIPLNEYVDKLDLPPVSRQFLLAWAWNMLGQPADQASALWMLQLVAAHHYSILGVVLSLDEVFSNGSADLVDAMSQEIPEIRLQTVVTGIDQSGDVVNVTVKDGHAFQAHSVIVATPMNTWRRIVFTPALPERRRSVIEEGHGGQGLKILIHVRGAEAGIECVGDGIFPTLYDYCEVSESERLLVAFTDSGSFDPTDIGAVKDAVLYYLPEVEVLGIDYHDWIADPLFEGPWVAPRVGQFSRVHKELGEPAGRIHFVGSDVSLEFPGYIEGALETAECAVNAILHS
Description: Initial rates of amine oxidation were routinely measured by monitoring oxygen consumption in 0.1 M Hepes (pH 8.0) and 0.1 M NaCl at 25 °C using an oxygen electrode (model 5300A, Yellow Springs Instruments, Yellow Springs, OH). With (R,S)-6-hydroxynicotine and (S)-6-hydroxynornicotine, the concentration of enzyme was typically 0.1 μM; this was increased to 4 μM for (S)-nicotine and (R,S)-4-(1-methyl pyrrolidine-2-yl)phenol. The concentration of oxygen was varied by bubbling the desired concentration of oxygen (62 μM to 1.25 mM) into the oxygen electrode cell for ∼10 min.

Row | SMILES | Kd [µM]
1 | CN1CCC[C@H]1c1ccc(=O)[nH]c1 [(S)-6-hydroxynicotine] | 100
2 | CN1CCC[C@H]1c1ccc(O)cc1 [(S)-4-(1-methylpyrrolidine-2-yl)phenol] | 2000
3 | O=c1ccc([C@@H]2CCCN2)c[nH]1 [(S)-6-hydroxynornicotine] | 300
